Measured values taken from ChEMBL document CHEMBL2440029, “Discovery and characterization of NVP-QAV680, a potent and selective CRTh2 receptor antagonist suitable for clinical testing in allergic diseases” (Bioorg Med Chem, 2013).
In brackets after ≈: the same amount, converted by molar mass. Values belong to the compound of their own block, whether it stands above or below them. Activity calls are given as the source filed them. The calls are words filed in the database; no cut-off is given here.

How the values were obtained:
[1] = target: T1, Prostaglandin D2 receptor 2 (Mus musculus, UniProt Q9Z2J6); test: Antagonist activity at mouse CRTh2 receptor expressed in CHO-K1 cells assessed as inhibition of […]-GTP-gamma-S binding after 50 mins by liquid scintillation counting; type: functional, cell-based
T1 sequence (Q9Z2J6 whole entry): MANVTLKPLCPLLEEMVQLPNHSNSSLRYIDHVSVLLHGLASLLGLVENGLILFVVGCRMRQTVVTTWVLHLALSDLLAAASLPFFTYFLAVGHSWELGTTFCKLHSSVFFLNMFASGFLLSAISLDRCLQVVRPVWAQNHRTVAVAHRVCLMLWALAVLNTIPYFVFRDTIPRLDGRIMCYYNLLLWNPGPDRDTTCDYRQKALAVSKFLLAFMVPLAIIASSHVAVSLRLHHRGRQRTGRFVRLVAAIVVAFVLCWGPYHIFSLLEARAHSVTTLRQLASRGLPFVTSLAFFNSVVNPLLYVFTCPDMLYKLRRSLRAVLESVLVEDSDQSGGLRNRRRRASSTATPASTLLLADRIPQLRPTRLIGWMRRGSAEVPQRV

[2] = Oral bioavailability in Wistar rat at 100 mg/kg; type: ADME, organism-based; conditions: in vivo
[3] = target: T1, Prostaglandin D2 receptor 2; test: Displacement of [3H]-prostaglandin D2 from mouse CRTh2 receptor expressed in CHO cells after 2 hrs; type: cell-based
[4] = AUC (0 to 48 hrs) in Wistar rat at 100 mg/kg, po; type: ADME, organism-based; set-up: time < 48 hr, dose 100 mg/kg, route oral; conditions: plasma
[5] = Oral bioavailability in Wistar rat at 3 mg/kg; type: ADME, organism-based; conditions: in vivo
[6] = AUC (0 to 48 hrs) in Wistar rat at 3 mg/kg, po; type: ADME, organism-based; set-up: time < 48 hr, dose 3 mg/kg, route oral; conditions: plasma
[7] = Tmax in Wistar rat at 3 mg/kg, po; type: ADME, organism-based; set-up: dose 3 mg/kg, route oral; conditions: in vivo
[8] = Tmax in Wistar rat at 100 mg/kg, po; type: ADME, organism-based; set-up: dose 100 mg/kg, route oral; conditions: in vivo
[9] = Cmax in Wistar rat at 3 mg/kg, po; type: ADME, organism-based; set-up: dose 3 mg/kg, route oral; conditions: in vivo
[10] = Cmax in Wistar rat at 100 mg/kg, po; type: ADME, organism-based; set-up: dose 100 mg/kg, route oral; conditions: in vivo
[11] = Volume of distribution at steady state in Wistar rat at 0.5 mg/kg, iv; type: ADME, organism-based; set-up: dose 0.5 mg/kg, route intravenous; conditions: in vivo, read-out: Vdss
[12] = Terminal half life in Wistar rat at 0.5 mg/kg, iv; type: ADME, organism-based; set-up: dose 0.5 mg/kg, route intravenous; conditions: in vivo, read-out: beta t1/2 (converted)
[13] = Solubility of the compound at pH 6.8; type: physicochemical; conditions: buffer
[14] = Clearance in Wistar rat at 0.5 mg/kg, iv; type: ADME, organism-based; set-up: dose 0.5 mg/kg, route intravenous; conditions: in vivo
[15] = Apparent permeability from apical to basolateral side in human Caco2 cells; type: ADME, cell-based; conditions: Caco-2
[16] = Apparent permeability from basolateral to apical side in human Caco2 cells; type: ADME, cell-based; conditions: Caco-2
[17] = target: T2, Prostaglandin D2 receptor 2 (Homo sapiens) (UniProt Q9Y5Y4); test: Antagonist activity at human CRTh2 receptor expressed in CHO cells assessed as inhibition of prostaglandin D2 and forskolin-induced cAMP accumulation after 45 mins in presence of 0.1% HSA; type: functional, cell-based
T2 sequence (whole entry): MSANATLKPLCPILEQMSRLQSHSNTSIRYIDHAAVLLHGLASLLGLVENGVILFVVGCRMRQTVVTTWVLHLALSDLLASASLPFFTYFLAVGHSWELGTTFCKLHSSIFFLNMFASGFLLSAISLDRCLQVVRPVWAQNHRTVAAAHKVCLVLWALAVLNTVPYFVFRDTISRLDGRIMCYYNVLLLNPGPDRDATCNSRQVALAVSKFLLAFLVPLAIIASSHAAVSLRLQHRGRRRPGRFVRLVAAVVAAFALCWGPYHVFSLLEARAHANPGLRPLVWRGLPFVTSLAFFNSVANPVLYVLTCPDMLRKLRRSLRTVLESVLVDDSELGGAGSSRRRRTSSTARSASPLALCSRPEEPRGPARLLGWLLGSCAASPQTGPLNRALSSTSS

[18] = target: T3, Prostaglandin D2 receptor 2 (Homo sapiens, UniProt Q9Y5Y4); test: Antagonist activity at human CRTh2 receptor expressed in CHO cells assessed as inhibition of prostaglandin D2 and forskolin-induced cAMP accumulation after 45 mins; type: functional, cell-based
T3 sequence (Q9Y5Y4 whole entry): T2 sequence (whole entry)

[19] = target: T3, Prostaglandin D2 receptor 2; test: Displacement of [3H]-prostaglandin D2 from human CRTh2 receptor expressed in CHO cells after 2 hrs; type: cell-based
[20] = Cmax in Balb/c mouse at 5 mg/kg, po; type: ADME, organism-based; set-up: dose 5 mg/kg, route oral; conditions: in vivo
[21] = target: Polyunsaturated fatty acid 5-lipoxygenase (Homo sapiens) (UniProt P09917); test: Inhibition of human 5-lipoxygenase at 10 uM
[22] = target: Prostaglandin G/H synthase 1 (Homo sapiens) (UniProt P23219); test: Inhibition of human COX1 at 10 uM
Sequence of Prostaglandin G/H synthase 1 (Homo sapiens) (P23219 whole entry): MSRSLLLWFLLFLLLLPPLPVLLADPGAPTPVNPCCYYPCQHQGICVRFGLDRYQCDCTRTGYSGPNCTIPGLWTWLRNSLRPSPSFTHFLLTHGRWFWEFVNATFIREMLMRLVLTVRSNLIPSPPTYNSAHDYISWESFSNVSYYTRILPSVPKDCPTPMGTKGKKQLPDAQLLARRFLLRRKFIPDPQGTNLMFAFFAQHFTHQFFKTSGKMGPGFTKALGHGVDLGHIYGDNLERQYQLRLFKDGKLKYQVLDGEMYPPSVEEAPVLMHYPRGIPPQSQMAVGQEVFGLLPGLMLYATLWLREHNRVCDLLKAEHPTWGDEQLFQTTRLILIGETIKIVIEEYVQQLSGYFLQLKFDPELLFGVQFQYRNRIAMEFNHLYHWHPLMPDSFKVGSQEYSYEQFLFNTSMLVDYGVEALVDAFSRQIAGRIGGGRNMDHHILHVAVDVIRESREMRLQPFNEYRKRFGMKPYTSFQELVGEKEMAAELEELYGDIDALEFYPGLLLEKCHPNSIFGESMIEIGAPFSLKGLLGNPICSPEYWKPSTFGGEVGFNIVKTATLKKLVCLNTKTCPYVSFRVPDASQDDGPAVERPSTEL

[23] = target: T4, Prostaglandin G/H synthase 2 (Homo sapiens) (UniProt P35354); test: Inhibition of human COX2 at 10 uM
T4 sequence (whole entry): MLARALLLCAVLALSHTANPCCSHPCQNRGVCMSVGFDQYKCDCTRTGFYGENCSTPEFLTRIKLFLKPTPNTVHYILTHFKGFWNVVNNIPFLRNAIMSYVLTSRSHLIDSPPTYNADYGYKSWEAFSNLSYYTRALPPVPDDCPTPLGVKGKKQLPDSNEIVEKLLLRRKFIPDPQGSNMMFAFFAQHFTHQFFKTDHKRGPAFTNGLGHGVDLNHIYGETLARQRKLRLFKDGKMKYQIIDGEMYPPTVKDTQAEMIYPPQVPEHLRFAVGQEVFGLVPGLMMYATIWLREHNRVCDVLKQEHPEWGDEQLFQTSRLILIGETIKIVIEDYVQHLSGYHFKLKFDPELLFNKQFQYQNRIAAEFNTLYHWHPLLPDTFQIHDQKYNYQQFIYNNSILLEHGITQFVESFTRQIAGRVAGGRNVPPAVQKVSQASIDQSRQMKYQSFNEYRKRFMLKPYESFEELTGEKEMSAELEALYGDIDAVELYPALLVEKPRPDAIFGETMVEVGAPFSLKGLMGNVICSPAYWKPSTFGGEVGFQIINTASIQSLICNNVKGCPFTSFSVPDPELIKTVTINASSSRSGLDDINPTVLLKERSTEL

[24] = target: Leukotriene B4 receptor 1 (Homo sapiens) (UniProt Q15722); test: Inhibition of LTB4 receptor (unknown origin) at 10 uM
Sequence of Leukotriene B4 receptor 1 (Homo sapiens) (Q15722 whole entry): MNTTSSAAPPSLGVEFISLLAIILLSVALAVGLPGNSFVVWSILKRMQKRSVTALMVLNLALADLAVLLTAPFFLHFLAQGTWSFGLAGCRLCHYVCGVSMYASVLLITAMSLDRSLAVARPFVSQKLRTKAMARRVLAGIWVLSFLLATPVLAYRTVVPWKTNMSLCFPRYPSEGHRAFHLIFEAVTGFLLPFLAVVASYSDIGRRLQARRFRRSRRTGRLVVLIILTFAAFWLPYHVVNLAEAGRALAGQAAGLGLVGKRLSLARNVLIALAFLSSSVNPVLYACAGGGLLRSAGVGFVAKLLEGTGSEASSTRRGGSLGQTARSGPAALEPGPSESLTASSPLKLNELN

Thromboxane A2 receptor = Thromboxane A2 receptor (Homo sapiens, UniProt P21731); test: Inhibition of prostanoid TP receptor (unknown origin)
Sequence of Thromboxane A2 receptor (P21731 whole entry): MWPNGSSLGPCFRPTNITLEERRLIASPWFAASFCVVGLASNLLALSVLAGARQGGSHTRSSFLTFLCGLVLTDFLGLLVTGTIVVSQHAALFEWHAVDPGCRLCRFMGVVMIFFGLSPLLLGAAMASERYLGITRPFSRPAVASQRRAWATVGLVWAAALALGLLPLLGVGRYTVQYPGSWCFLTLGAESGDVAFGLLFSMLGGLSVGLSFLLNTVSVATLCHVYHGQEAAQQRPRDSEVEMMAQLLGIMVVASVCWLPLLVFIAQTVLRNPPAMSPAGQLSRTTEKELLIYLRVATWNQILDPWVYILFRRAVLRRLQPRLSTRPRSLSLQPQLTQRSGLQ

[25] = target: Prostaglandin E2 receptor EP4 subtype (Homo sapiens, UniProt P35408); test: Inhibition of prostanoid EP4 receptor (unknown origin)
[26] = target: Prostaglandin F2-alpha receptor (Homo sapiens, UniProt P43088); test: Inhibition of prostanoid FP receptor (unknown origin)
Sequence of Prostaglandin F2-alpha receptor (P43088 whole entry): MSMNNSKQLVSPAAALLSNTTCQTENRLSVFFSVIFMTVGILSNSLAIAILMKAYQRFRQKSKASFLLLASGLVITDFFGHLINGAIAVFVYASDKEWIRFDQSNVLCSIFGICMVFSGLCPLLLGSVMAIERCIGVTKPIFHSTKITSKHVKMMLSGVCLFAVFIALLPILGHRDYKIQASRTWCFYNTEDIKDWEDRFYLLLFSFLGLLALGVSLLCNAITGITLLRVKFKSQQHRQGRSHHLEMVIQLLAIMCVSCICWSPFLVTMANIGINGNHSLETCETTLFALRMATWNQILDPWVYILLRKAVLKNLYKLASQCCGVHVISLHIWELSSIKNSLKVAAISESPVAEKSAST

[27] = target: Prostaglandin E2 receptor EP3 subtype (Homo sapiens, UniProt P43115); test: Inhibition of prostanoid EP3 receptor (unknown origin)
Sequence of Prostaglandin E2 receptor EP3 subtype (P43115 whole entry): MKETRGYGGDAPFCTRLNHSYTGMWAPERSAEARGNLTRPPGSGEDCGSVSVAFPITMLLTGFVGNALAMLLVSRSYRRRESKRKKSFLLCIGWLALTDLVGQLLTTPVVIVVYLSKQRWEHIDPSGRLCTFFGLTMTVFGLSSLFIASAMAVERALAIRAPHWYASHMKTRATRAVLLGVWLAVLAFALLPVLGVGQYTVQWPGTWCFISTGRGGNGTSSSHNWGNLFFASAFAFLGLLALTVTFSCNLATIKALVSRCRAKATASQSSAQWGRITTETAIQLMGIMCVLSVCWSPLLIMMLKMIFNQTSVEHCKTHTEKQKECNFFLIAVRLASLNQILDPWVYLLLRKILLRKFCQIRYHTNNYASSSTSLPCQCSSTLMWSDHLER

Prostacyclin receptor = Prostacyclin receptor (Homo sapiens, UniProt P43119); test: Inhibition of prostanoid IP receptor (unknown origin)
Sequence of Prostacyclin receptor (P43119 whole entry): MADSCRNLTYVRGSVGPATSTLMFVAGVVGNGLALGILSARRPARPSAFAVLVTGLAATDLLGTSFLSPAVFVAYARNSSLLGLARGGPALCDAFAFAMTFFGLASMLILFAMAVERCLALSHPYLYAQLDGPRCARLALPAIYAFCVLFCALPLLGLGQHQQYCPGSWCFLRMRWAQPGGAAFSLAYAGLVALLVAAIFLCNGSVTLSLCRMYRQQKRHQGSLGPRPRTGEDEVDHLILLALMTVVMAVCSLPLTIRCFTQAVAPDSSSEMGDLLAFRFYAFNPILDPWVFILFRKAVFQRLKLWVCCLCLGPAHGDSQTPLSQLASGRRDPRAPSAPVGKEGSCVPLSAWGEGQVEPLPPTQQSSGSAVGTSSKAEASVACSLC

[28] = target: Prostaglandin E2 receptor EP2 subtype (Homo sapiens, UniProt P43116); test: Inhibition of prostanoid EP2 receptor (unknown origin)
[29] = target: Prostaglandin D2 receptor (Homo sapiens, UniProt Q13258); test: Inhibition of prostanoid DP1 receptor (unknown origin)
Sequence of Prostaglandin D2 receptor (Q13258 whole entry): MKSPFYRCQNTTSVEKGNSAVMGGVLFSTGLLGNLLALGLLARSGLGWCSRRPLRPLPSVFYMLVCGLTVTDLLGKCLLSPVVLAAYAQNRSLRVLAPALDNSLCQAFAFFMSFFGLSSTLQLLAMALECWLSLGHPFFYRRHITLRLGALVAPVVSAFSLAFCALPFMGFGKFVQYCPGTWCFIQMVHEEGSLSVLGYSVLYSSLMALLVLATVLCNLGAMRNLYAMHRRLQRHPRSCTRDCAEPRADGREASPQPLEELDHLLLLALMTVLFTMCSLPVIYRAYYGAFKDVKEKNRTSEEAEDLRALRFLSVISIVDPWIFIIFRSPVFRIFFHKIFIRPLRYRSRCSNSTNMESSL

Cytochrome P450 2D6 = Cytochrome P450 2D6 (Homo sapiens, UniProt P10635); test: Inhibition of human CYP2D6; type: ADME
Cytochrome P450 3A4 = Cytochrome P450 3A4 (Homo sapiens, UniProt P08684); test: Inhibition of human CYP3A4; type: ADME
Sequence of Cytochrome P450 3A4 (P08684 whole entry): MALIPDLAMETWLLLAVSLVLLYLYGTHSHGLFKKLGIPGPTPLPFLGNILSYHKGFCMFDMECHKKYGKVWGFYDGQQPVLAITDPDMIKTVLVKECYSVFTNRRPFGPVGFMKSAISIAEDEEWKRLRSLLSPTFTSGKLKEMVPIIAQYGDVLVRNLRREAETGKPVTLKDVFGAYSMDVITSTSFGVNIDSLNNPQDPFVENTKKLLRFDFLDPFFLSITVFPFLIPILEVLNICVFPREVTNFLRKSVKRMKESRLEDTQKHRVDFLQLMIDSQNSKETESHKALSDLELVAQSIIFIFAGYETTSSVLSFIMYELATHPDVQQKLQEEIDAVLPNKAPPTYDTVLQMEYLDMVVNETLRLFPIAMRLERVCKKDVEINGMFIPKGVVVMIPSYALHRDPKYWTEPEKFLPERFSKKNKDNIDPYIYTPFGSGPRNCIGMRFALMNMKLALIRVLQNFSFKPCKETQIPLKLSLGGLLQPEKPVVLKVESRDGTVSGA

Cytochrome P450 1A2 = Cytochrome P450 1A2 (Homo sapiens, UniProt P05177); test: Inhibition of human CYP1A2; type: ADME
Sequence of Cytochrome P450 1A2 (P05177 whole entry): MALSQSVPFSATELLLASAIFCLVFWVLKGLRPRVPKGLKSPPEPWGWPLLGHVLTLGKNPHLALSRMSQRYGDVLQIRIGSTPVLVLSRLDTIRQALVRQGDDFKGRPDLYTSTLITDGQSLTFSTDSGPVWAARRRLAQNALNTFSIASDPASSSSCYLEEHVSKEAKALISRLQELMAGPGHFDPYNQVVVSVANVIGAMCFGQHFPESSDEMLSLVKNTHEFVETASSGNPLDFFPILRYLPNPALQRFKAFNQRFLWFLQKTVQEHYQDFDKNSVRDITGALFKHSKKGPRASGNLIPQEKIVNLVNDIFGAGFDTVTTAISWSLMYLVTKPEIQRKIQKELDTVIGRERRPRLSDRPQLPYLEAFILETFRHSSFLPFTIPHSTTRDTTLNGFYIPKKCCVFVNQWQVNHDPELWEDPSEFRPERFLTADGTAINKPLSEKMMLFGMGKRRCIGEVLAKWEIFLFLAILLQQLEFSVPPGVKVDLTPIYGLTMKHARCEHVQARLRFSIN

Cytochrome P450 2C9 = Cytochrome P450 2C9 (Homo sapiens, UniProt P11712); test: Inhibition of human CYP2C9; type: ADME
[30] = target: Cysteinyl leukotriene receptor 1 (Homo sapiens) (UniProt Q9Y271); test: Inhibition of CysLT1 receptor (unknown origin) at 10 uM
Sequence of Cysteinyl leukotriene receptor 1 (Homo sapiens) (Q9Y271 whole entry): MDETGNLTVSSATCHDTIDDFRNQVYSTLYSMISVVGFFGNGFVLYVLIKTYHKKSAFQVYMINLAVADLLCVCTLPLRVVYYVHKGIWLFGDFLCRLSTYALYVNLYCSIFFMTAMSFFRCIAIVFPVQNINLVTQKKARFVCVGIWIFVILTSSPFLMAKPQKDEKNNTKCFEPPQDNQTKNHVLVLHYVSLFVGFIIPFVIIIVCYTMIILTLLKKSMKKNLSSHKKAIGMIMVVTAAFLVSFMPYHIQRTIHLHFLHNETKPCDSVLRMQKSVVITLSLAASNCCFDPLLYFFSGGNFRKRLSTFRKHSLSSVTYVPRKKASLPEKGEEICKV

Mus musculus = test: Inhibition of FITC hapten-induced ear edema in po dosed Balb/cJBomTac mouse allergic contact dermatitis model after 24 hrs; type: functional
[31] = target: Cysteinyl leukotriene receptor 2 (Homo sapiens) (UniProt Q9NS75); test: Inhibition of CysLT2 receptor (unknown origin) at 10 uM
Sequence of Cysteinyl leukotriene receptor 2 (Homo sapiens) (Q9NS75 whole entry): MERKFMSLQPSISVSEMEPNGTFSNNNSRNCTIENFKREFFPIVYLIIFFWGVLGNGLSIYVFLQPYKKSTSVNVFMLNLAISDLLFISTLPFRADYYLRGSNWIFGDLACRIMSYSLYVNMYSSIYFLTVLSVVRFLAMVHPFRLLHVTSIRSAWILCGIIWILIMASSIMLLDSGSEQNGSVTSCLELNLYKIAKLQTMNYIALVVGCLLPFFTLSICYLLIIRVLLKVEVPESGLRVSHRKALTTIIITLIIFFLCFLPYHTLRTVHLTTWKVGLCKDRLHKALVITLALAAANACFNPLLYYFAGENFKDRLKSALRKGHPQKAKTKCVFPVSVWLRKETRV

Rattus norvegicus [32] = test: Inhibition of eosinophil recruitment in bronchoalveolar lavage in po dosed Sprague-Dawley rat allergic disease model; type: functional, organism-based; conditions: Lung
Rattus norvegicus [33] = test: Inhibition of eosinophil recruitment in bronchoalveolar lavage in Sprague-Dawley rat allergic disease model at 1 mg/kg, po; type: functional, organism-based; set-up: dose 1 mg/kg; conditions: Lung
[34] = Fraction unbound in Sprague-Dawley rat plasma at 0.1 to 0.3 mg/kg, po; type: ADME, organism-based; set-up: dose 0.1-0.3 mg/kg, route oral
[35] = Inhibition of DK-PGD2-induced IL-13 production in human CD4+ Th2 cells after 6 to 8 hrs; type: functional, cell-based
[36] = Inhibition of DK-PGD2-induced IL-5 production in human CD4+ Th2 cells after 6 to 8 hrs; type: functional, cell-based
[37] = Antagonist activity at CRTh2 receptor in human isolated eosinophil assessed as inhibition of DK-PGD2-induced shape change after 5 mins by flow cytometry

Compound: Cc1c(CC(=O)O)c2cccnc2n1Cc1ccc(S(C)(=O)=O)cc1 [QAV680]
IC50 [1]: 0.094 µM
bioavailability [2]: 35%
Ki [3]: 0.01 µM
AUC(0-t) at 48 h [4]: 128 µM·h
bioavailability [5]: 54%
AUC(0-t) at 48 h [6]: 6.06 µM·h
Tmax [7]: 39.6 min
Tmax [8]: 39.6 min
Cmax [9]: 2.6 µM
Cmax [10]: 42.7 µM
Vd [11]: 5.5 L/kg
half-life [12]: 1030 min
solubility [13]: 5200 µg/mL (≈ 14.5 mM)
clearance [14]: 15.2 mL/min/kg
Papp A→B [15]: 0.9 ×10⁻⁶ cm/s
Papp B→A [16]: 2.2 ×10⁻⁶ cm/s
fold change (FC) [17]: 3.1
IC50 [18]: 0.037 µM
Ki [19]: 0.036 µM
Cmax [20]: 7.6 µM
inhibition [21]: inactive
inhibition [22]: inactive
inhibition [23]: inactive
inhibition [24]: inactive
IC50 (Thromboxane A2 receptor): > 10 µM
IC50 [25]: > 10 µM
IC50 [26]: > 10 µM
IC50 [27]: > 10 µM
IC50 (Prostacyclin receptor): > 10 µM
IC50 [28]: > 10 µM
IC50 [29]: > 10 µM
IC50 (Cytochrome P450 2D6): > 100 µM
IC50 (Cytochrome P450 3A4): > 100 µM
IC50 (Cytochrome P450 1A2): > 100 µM
IC50 (Cytochrome P450 2C9): > 100 µM
inhibition [30]: inactive
inhibition (Mus musculus): Dose-dependent effect
minimal effective dose (Mus musculus; read-out: MED): 10 mg/kg
inhibition [31]: inactive
Activity (Rattus norvegicus [32]): Dose-dependent effect
Activity (Rattus norvegicus [33]): Active
fraction unbound [34]: 0.34
IC50 [35]: 0.025 µM
IC50 [36]: 0.059 µM

Compound: Cc1c(CC(=O)O)c2cccnc2n1Cc1ccc(Cl)cc1
fold change (FC) [17]: 4.1
IC50 [18]: 0.484 µM
Ki [19]: 0.149 µM
inhibition [22]: inactive
inhibition [23]: inactive

Compound: Cc1c(CC(=O)O)c2cccnc2n1Cc1ccc([S+](C)[O-])cc1 (racemic)
fold change (FC) [17]: 3.1
IC50 [18]: 0.233 µM
Ki [19]: 0.249 µM

Compound: Cc1c(CC(=O)O)c2cccnc2n1Cc1ccc(S(=O)(=O)C(F)(F)F)cc1
fold change (FC) [17]: 0.9
IC50 [18]: 0.147 µM
Ki [19]: 0.208 µM

Compound: Cc1c(CC(=O)O)c2cccnc2n1Cc1ccncc1
Ki [19]: 2.23 µM

Compound: Cc1c(CC(=O)O)c2cccnc2n1S(=O)(=O)c1ccc(F)c(F)c1
fold change (FC) [17]: 1.3

Compound: Cc1c(CC(=O)O)c2cccnc2n1Cc1ccccn1
Ki [19]: 2.94 µM

Compound: Cc1c(CC(=O)O)c2cccnc2n1S(=O)(=O)c1ccc(Cl)cc1
fold change (FC) [17]: 3.8
IC50 [18]: 0.565 µM
inhibition [22]: inactive
inhibition [23]: inactive
IC50 [37]: 0.108 µM

Further lines, results first:

fold change (FC) [17]: 3.6
IC50 [18]: 0.554 µM
Ki [19]: 0.379 µM
Compound: Cc1c(CC(=O)O)c2cccnc2n1Cc1ccc(C#N)cc1

fold change (FC) [17]: 4.1
Compound: Cc1c(CC(=O)O)c2cccnc2n1Cc1ccc([N+](=O)[O-])cc1

Ki [19]: 1.06 µM
Compound: Cc1c(CC(=O)O)c2cccnc2n1Cc1cccnc1

Ki [19]: 0.624 µM
Compound: Cc1c(CC(=O)O)c2cccnc2n1Cc1ccccc1Cl
